The record followed here is patent US20220128542A1, “TREATMENT EFFICIENCY EVALUATION” (TX MEDIC AB, priority 2019, published 2022).

This assay concerns Human umbilical vein endothelial cells (HUVECs). Briefly: Gene expression array and pathway/upstream regulator analysis in HUVECs (Example 2). Format: cell-based. The following applies: for differentially expressed genes: HUVEC. On the procedure:
For each cell line, n=8×25 cm^2 culture flasks were set up. Two flasks were harvested for each cell type on the day of treatment (24 hours after seeding). This represents the Day0 time point. From the remaining flasks, three flasks were treated with Control Medium and three were treated with Culture Medium (CM) containing LMW-DS to give a final concentration of 0.01 mg/ml. Cells from the treated flasks were collected after 48 hours. Therefore the collected data represent (a) untreated cells (Day0 Controls and Day2 Controls) and (b) cells treated with LMW-DS for 48 hours (Day2 LMW-DS treated).
25 cm^2 flasks were coated by adding 2 ml per flask of a solution of 50 μg/ml poly-d-lysine in Hank's balanced salt solution (HBSS) and incubating overnight at 37° C. in the dark. Flasks were washed with cell culture water and air-dried for 30 min in the dark. Flasks were coated by adding 1 ml per flask of a solution of 25 μg/ml laminin in phosphate-buffered saline (PBS) and incubating for 2 hour at 37° C. in the dark. The laminin flasks were washed with PBS three times before plating cells.
Medium 200+Large Vessel Endothelial Supplement (M200+LVES) additive (1:50) was prepared and pre-warmed to 37° C. Cells were thawed in a 37° C. water bath for no longer than 2 min and gently transferred into a 50 ml tube containing 20 ml Dulbecco's Modified Eagle Medium, Nutrient Mixture F-12 (DMEM-F12). The cell suspension was mixed by inverting the tube carefully twice. Cells were spun at 400×g for 10 minutes. Supernatant removed and cells were re-suspended in 10 ml of culture media (M200+LVES additive).
Cells were counted with the Cellometer. 1,000,000 cells/flask were seeded in 25 cm^2 flasks (n=8) and medium was topped up to a total of 5 ml per flask. Cells were incubated at 37° C. with 5% CO2. Cells were allowed to settle for 24 hours before LMW-DS treatment.
A fresh 100× LMW-DS stock (1.0 mg/ml) was prepared in sterile DMEM-F12. The concentrated drug stock was sterile filtered and added to the respective culture media (19.6 ml CM and 0.4 ml LMW-DS stock solution). The Control was made using 19.6 ml CM and 0.4 ml of DMEM-F12. LMW-DS and CM were added to the respective flasks (5 ml each) to reach the 0.01 mg/ml concentration of LMW-DS in each dish with a total of 10 ml CM each.
CM was aspirated into a clean and labelled 15 ml Falcon tube. The flasks (without culture medium) were placed into the −80° C. freezer for 30 minutes. The CM in the Falcon tubes was spun at 3000×g for 5 minutes. Supernatant was removed and the small pellet was re-suspended in 2.5 ml Trizol:Water (4:1) solution at room temperature (RT, ˜22° C.).
The frozen flasks were removed one-by one from the freezer and the Trizol-Water from the appropriate tubes was moved to the flask. Flasks were left at RT for 5 minutes before the content was aspirated back into the 15 ml Falcon tube (after washing the bottom of the flask with the solution thoroughly). The flasks were inspected under the microscope to ensure full removal of cells. The collected lysates in the 15 ml Falcon tubes were placed into the −80° C. freezer.
Falcon tubes containing the homogenates were removed from the freezer and stored for 5 minutes at RT to permit the complete dissociation of nucleoprotein complexes.
Two aliquots of 1 ml lysate were removed from each sample and 200 μl of chloroform was added to each (0.2 ml of chloroform per 1 ml of TRIzol Reagent used during the cell lysis step) and the tube was shaken vigorously. Samples were stored at RT for 2-3 minutes and subsequently centrifuged at 12,000×g for 15 minutes at 4° C.
The mixture separated into three layers: a lower red phenol-chloroform phase, an interphase and a colorless upper aqueous phase. The RNA remained in the top aqueous phase, DNA in the white middle (interphase) phase and protein in the pink bottom (organic) phase. The top ¾ of the aqueous phase was transferred to a new clean Eppendorf tube. […]

Where the note is “D0 control vs D2 LMW-DS treated, 0.01 mg/ml”, sodium salt of dextran sulfate [LMW-DS] displayed a differentially expressed genes of 1779 genes. Under “D2 control vs D2 LMW-DS treated, 0.01 mg/ml”, this substance came in with a differentially expressed genes of 76 genes. Under “HUVECs”, the cell adhesion entry was “not affected”. Besides, under “HUVECs, 0.01 mg/ml, 48 hours”, the “number of genes: no effect / abolished nutrient effect” value came out at 67, the “number of genes: no effect / total” value is recorded as 67, the “number of genes: significant downregulation / abolished nutrient effect” value stood at 4 and the “number of genes: significant downregulation / enhanced response to nutrients” value is listed as 120. Under “HUVECs, 0.01 mg/ml, 48 hours”, the “number of genes: significant downregulation / not different from control” value is recorded as 167, the “number of genes: significant downregulation / total” value is reported as 291, the “number of genes: significant upregulation / abolished nutrient effect” value is listed as 11 and the “number of genes: significant upregulation / enhanced response to nutrients” value turned out to be 229. Moreover, for the setting “HUVECs, 0.01 mg/ml, 48 hours”, the “number of genes: significant upregulation / not different from control” value was found to be 1326, the “number of genes: significant upregulation / total” value is recorded as 1566, the “number of genes: total / abolished nutrient effect” value came to 82 and the “number of genes: total / enhanced response to nutrients” value is 349. Also, under “HUVECs, 0.01 mg/ml, 48 hours”, the “number of genes: total / not different from control” value stood at 1493 and the “number of genes: total / total” value turned out to be 1924.
